Assay results from patent publication US20170210751A1, “PRMT5 INHIBITORS AND USES THEREOF” (Epizyme, Inc., priority 2014, published 2017).

Columns and labels:
[1] = tested on: Symmetric di-Methyl Arginine in Z-138 cells; test: Z-138 Methylation Assay (In Cell Western for symmetric di-methyl arginine); assay type: cell-based; conditions: Homo sapiens, 96 hours incubation, symmetric di-methyl arginine normalised to DNA content, read-out: ICW EC50
Outline: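 Z-138 cells were treated with compound for 96 h at 37 °C, then fixed on poly-D-lysine plates. Symmetric di-methyl arginine was detected by In-Cell Western (800 nm) with DRAQ5 DNA normalisation (700 nm). Percent inhibition used DMSO and 3 μM reference-compound controls; IC50 curves came from triplicate wells.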

Z-138 cell line = test: Z-138 Proliferation Assay (Cell Titer Glo); assay type: cell-based; conditions: Homo sapiens, 120 h; Z-138 cells, 5 days incubation, ATP (Cell Titer Glo)
Outline: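 Z-138 cells in RPMI with 10% FBS exposed 5 days at 37 °C to nine-point 3-fold dilutions, top 20 μM final, 0.2% DMSO, triplicate. ATP-based CellTiter-Glo luminescence; IC50 from 4-parameter fit of normalized curves.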

Compound	EC50 [1]	EC50 (Z-138 cell line)
CC(=O)N1CC(Nc2cc(C(=O)NC[C@H](O)CN3CCc4[nH]c(C)nc4C3)ncn2)C1 [Compound 3-47]	> 1000 nM	> 5000 nM
CC(=O)N1CCC(Nc2cc(C(=O)NC[C@H](O)CN3CCc4cn[nH]c4C3)ccn2)CC1 [Compound 3-50]	> 1000 nM	> 5000 nM
CC(=O)N1CCC(Nc2cc(C(=O)NC[C@H](O)CN3CCc4cn[nH]c4C3)ncn2)CC1 [Compound 3-51]	> 1000 nM	> 5000 nM
CC(=O)N1CCC(Nc2cc(C(=O)NC[C@H](O)CN3CCc4c(cnn4C)C3)ccn2)CC1 [Compound 3-52]	> 1000 nM	> 5000 nM
CC(=O)N1CCC(Nc2cc(C(=O)NC[C@H](O)CN3CCc4nn(C)cc4C3)ccn2)CC1 [Compound 3-53]	> 1000 nM	> 5000 nM
CC(=O)N1CCC(Nc2cc(C(=O)NC[C@H](O)CN3CCc4nc(C)[nH]c4C3)ccn2)CC1 [Compound 3-54]	> 1000 nM	> 5000 nM
CC(=O)N1CCC(Nc2cc(C(=O)NC[C@H](O)CN3CCc4c(cnn4C)C3)ncn2)CC1 [Compound 3-56]	> 1000 nM	> 5000 nM
CC(=O)N1CCC(Nc2cc(C(=O)NC[C@H](O)CN3CCc4nn(C)cc4C3)ncn2)CC1 [Compound 3-57]	> 1000 nM	> 5000 nM
CC(=O)N1CCC(Nc2cc(C(=O)NC[C@H](O)CN3CCCc4c3cnn4C)ncn2)CC1 [Compound 3-58]	> 1000 nM	> 5000 nM
Cc1nc2c(o1)CCN(C[C@@H](O)CNC(=O)c1cc(NC3COC3)ncn1)C2 [Compound 4-1, (S)—N-(2-hydroxy-3-(2-methyl-6,7-dihydrooxazolo[4,5-c]pyridin-5(4H)-yl)propyl)-6-(oxetan-3-ylamino)pyrimidine-4-carboxamide]	> 1000 nM	> 5000 nM
CC(=O)N1CC(Nc2cc(C(=O)NC[C@H](O)CN3CCc4oc(C)nc4C3)ncn2)C1 [Compound 4-2, (S)-6-((1-acetylazetidin-3-yl)amino)-N-(2-hydroxy-3-(2-methyl-6,7-dihydrooxazolo[4,5-c]pyridin-5(4H)-yl)propyl)pyrimidine-4-carboxamide]	> 1000 nM	> 5000 nM
CC(=O)N1CCC(Nc2cc(C(=O)NC[C@H](O)CN3CCc4oc(C)nc4C3)ncn2)CC1 [Compound 4-3, (S)-6-((1-acetylpiperidin-4-yl)amino)-N-(2-hydroxy-3-(2-methyl-6,7-dihydrooxazolo[4,5-c]pyridin-5(4H)-yl)propyl)pyrimidine-4-carboxamide]	> 1000 nM	> 5000 nM
CC(=O)N1CCC(Nc2cc(C(=O)NC[C@H](O)CN3CCc4oc(C)nc4C3)ccn2)CC1 [Compound 4-4, (S)-2-((1-acetylpiperidin-4-yl)amino)-N-(2-hydroxy-3-(2-methyl-6,7-dihydrooxazolo[4,5-c]pyridin-5(4H)-yl)propyl)isonicotinamide]	> 1000 nM	> 5000 nM
